In the supplement of paper PMC10307832:

Columns and labels:
Assay in all cases: relative viability (nuclei count vs DMSO), 5 days (fraction); higher = more cells survive
VE-821 + Luminespib = compound: CS(=O)(=O)c1ccc(-c2cnc(N)c(C(=O)Nc3ccccc3)n2)cc1 [VE-821] + CCNC(=O)c1noc(-c2cc(C(C)C)c(O)cc2O)c1-c1ccc(CN2CCOCC2)cc1 [Luminespib] (partner 0.01 µM)
In short: (§1)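 Relative viability equals treated-well nuclei counts divided by vehicle-well nuclei counts. Counts came from 4× images of lung cancer cell lines grown in 1536-well plates for 5 days after pin-tool dosing on the day after seeding. Dosing used one drug alone or a fixed anchor-drug dose plus five library-drug doses (not always all listed) in √10 steps, and values are medians of duplicate plates.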

VE-821 + Lapatinib = compound: CS(=O)(=O)c1ccc(-c2cnc(N)c(C(=O)Nc3ccccc3)n2)cc1 [VE-821] + CS(=O)(=O)CCNCc1ccc(-c2ccc3ncnc(Nc4ccc(OCc5cccc(F)c5)c(Cl)c4)c3c2)o1 [Lapatinib] (partner 2 µM)
In short: as §1

VE-821 + AZD7762 = compound: CS(=O)(=O)c1ccc(-c2cnc(N)c(C(=O)Nc3ccccc3)n2)cc1 [VE-821] + NC(=O)Nc1cc(-c2cccc(F)c2)sc1C(=O)N[C@H]1CCCNC1 [AZD7762] (partner 0.2 µM)
In short: as §1

Ruxolitinib + Pictilisib = compound: N#CC[C@H](C1CCCC1)n1cc(-c2ncnc3[nH]ccc23)cn1 [Ruxolitinib] + CS(=O)(=O)N1CCN(Cc2cc3nc(-c4cccc5[nH]ncc45)nc(N4CCOCC4)c3s2)CC1 [Pictilisib] (partner 1 µM)
In short: as §1

Row | Cell Line | relative viability (VE-821 + Luminespib; first compound 0.08 µM) | relative viability (VE-821 + Luminespib; first compound 0.253 µM) | relative viability (VE-821 + Luminespib; first compound 0.8 µM) | relative viability (VE-821 + Luminespib; first compound 2.53 µM) | relative viability (VE-821 + Luminespib; first compound 8 µM) | relative viability (VE-821 + Lapatinib; first compound 0.08 µM) | relative viability (VE-821 + Lapatinib; first compound 0.253 µM) | relative viability (VE-821 + Lapatinib; first compound 0.8 µM) | relative viability (VE-821 + Lapatinib; first compound 2.53 µM) | relative viability (VE-821 + Lapatinib; first compound 8 µM) | relative viability (VE-821 + AZD7762; first compound 0.08 µM) | relative viability (VE-821 + AZD7762; first compound 0.253 µM) | relative viability (VE-821 + AZD7762; first compound 0.8 µM) | relative viability (VE-821 + AZD7762; first compound 2.53 µM) | relative viability (VE-821 + AZD7762; first compound 8 µM) | relative viability (Ruxolitinib + Pictilisib; first compound 0.08 µM) | relative viability (Ruxolitinib + Pictilisib; first compound 0.253 µM) | relative viability (Ruxolitinib + Pictilisib; first compound 0.8 µM) | relative viability (Ruxolitinib + Pictilisib; first compound 2.53 µM) | relative viability (Ruxolitinib + Pictilisib; first compound 8 µM)
1 | NCI-H2126 | 0.908 | 0.826 | 0.807 | 0.782 | 0.469 | 0.741 | 0.713 | 0.747 | 0.677 | 0.6 | 1.07 | 1.05 | 0.987 | 0.928 | 0.615 | 0.493 | 0.472 | 0.531 | 0.55 | 0.582
2 | NCI-H647 | 0.257 | 0.344 | 0.168 | 0.131 | 0.158 | 1.15 | 0.884 | 1 | 1.16 | 0.535 | 0.46 | 0.235 |  | 0.217 | 0.0695 |  | 0.358 | 0.449 | 0.362 | 0.514
3 | NCI-H322M | 0.958 | 0.87 | 0.632 | 0.4 | 0.266 | 0.555 |  | 0.654 | 0.627 | 0.508 | 0.565 | 0.488 | 0.361 | 0.382 | 0.366 | 0.4 | 0.604 | 0.491 | 0.611 | 0.665
4 | NCI-H358 | 0.62 | 0.307 | 0.334 | 0.537 | 1.49 | 0.445 | 0.376 | 0.486 | 0.553 | 0.489 | 0.627 | 0.603 | 0.447 | 0.41 | 0.293 | 0.413 | 0.343 | 0.342 | 0.268 | 0.265
5 | LK-2 | 0.18 | 0.182 | 0.149 | 0.205 | 0.181 | 1.18 | 0.891 | 0.891 | 0.906 | 0.874 | 0.477 | 0.392 | 0.282 | 0.415 | 0.252 |  | 0.595 | 0.61 | 0.741 | 0.673
